Results on 21 compounds are retold here after US7169592B2, “Producing optically active amino compounds” (Kaneka Corporation, priority 1997, dated 2007).

Test [1] has as its system Arthrobacter species KNK168 strain. In words: Inducer added during culture; (R)-DMA formation by the separated cells. The class given is cell-based. As to conditions: substance added to medium as inducer; reaction 30° C., 20 hours, 1% 1-(3,4-dimethoxyphenyl)-2-propanone, 1% (RS)-1-methylpropylamine. On the procedure:
When culturing the Arthrobacter species KNK168 strain by the method described in Example 1, (RS)-1-methylpropylamine, (RS)-1-methylbutylamine, (RS)-3-amino-2,2-dimethylbutane, (RS)-2-amino-1-butanol, or (RS)-1-phenylethylamine was added to the medium in place of (R)-1-(3,4-dimethoxyphenyl)-2-aminopropane ((R)-DMA). The cells were separated from the culture, and the reaction was carried out at 30° C. for 20 hours using the above cells in a reaction mixture containing 1% 1-(3,4-dimethoxyphenyl)-2-propanone and 1% (RS)-1-methylpropylamine.

For test [2] the test system is unchanged. In words: Amino group donors in whole-cell transamination of 1-(3,4-dimethoxyphenyl)-2-propanone. The test is classed as cell-based. As to conditions: for (R)-DMA Formed: 1% amino group donor, 1% 1-(3,4-dimethoxyphenyl)-2-propanone, 0.1% Triton X-100, pH 8.5, 35° C., 20 hours; for Function as amino group donor (in words): whole cells. Here is the method:
The cultured cells were harvested by centrifugation, and the harvested cells were suspended in a reaction mixture (pH 8.5) containing 1% 1-(3,4-dimethoxyphenyl)-2-propanone, 0.1% Triton X-100, and 1% an amino group donor shown in Table 5. The mixture was reacted at 35° C. for 20 hours.

The test system of test [3] is Transaminase of Present Invention (purified enzyme). In words: Reactivity of purified transaminase to amino compounds (amino group donors) with pyruvic acid as acceptor. The class given is biochemical, Arthrobacter sp. KNK168. Details: Substrate Specificity, relative activity: concentration or dose not given beside the values. As to conditions: for Substrate Specificity, relative activity: purified enzyme, pyruvic acid as amino group acceptor; for Relative Activity: amino compound 40 mM in substrate solution, pyruvic acid acceptor, pH 8.3, 30° C., 1 hour, (R)-1-phenylethylamine = 100. An excerpt: (§1) The differences with the ω-amino acid transaminase derived from Pseudomonas sp. F-1 (Agric. Biol. Chem., 42, 2363–2367 (1978), Agric. Biol. Chem., 43, 1043–1048 (1979), J. Biol. Chem., 258, 2260–2265 (1983)) which have been well studied among the ω-amino acid transaminases, and with the benzylamine transaminase of Okada et al. (Japanese Patent Laid-Open No. Hei 6-178685) are summarized and shown in Table 2. In a case of the transaminase reaction in the present invention, the data of the purified enzyme are used, and in cases of those by other two enzymes, the data of the purified enzymes which are disclosed in each of the literature publication and laid-open patent publication are used. Pyruvic acid is used as an amino group acceptor in all cases.
Using the purified enzyme protein obtained in Example 9, reactivities to various amino compounds when using pyruvic acid as an amino acceptor were evaluated. A 150 μl solution of the purified enzyme protein solution diluted ten-folds was added to a 150 μl substrate solution [0.1 M potassium phosphate buffer (pH 8.3), 40 mM pyruvic acid, 0.1 mM pyridoxal phosphate, and 40 mM various amino compounds]. The components were reacted at 30° C. for 1 hour. The reaction tube was transferred into boiling water to stop the reaction, and thereafter, a part of the reaction mixture was diluted five-folds. Ten μl 0.1 M boric acid buffer (pH 8.0) and a 20 μl ethanol solution of 80 mM 4-fluoro-7-nitro-2,1,3-benzoxadiazole (NBD-F) were added to the 10 μl above-mentioned diluted reaction mixture. The resulting mixture was reacted at 60° C. for 1 minute, and thereafter, the resulting mixture was ice-cooled, and 460 μl 5 mM HCl was added thereto. This reaction mixture was analyzed by high-performance liquid chromatography using a fine pack C18-5 column (manufactured by Nippon Bunko) I and using 0.1 M potassium phosphate buffer (pH 6.5) and CH3CN (90:10) as an eluent to detect formation of NBD-Alanine with an excitation wavelength of 470 nm and a detection wave of […]. The results thereof are shown in Table 8 in terms of relative activity in the case of using […] as a substrate.

In test [4] the target is T1, ω-amino acid transaminase (Pseudomonas putida, UniProt P28269).
T1 sequence (P28269 1-449): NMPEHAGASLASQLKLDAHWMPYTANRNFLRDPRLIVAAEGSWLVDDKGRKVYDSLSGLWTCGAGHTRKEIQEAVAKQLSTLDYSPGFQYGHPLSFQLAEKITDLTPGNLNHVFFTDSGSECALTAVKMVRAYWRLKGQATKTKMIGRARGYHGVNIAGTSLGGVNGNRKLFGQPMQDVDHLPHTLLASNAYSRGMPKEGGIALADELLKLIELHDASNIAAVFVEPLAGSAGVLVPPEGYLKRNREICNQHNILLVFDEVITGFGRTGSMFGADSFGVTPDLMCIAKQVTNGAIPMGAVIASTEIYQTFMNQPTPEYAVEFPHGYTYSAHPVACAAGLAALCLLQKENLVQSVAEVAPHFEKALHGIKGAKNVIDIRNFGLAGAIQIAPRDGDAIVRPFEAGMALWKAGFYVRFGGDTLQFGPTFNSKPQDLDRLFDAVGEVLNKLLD
To be noted: purified enzyme, literature; pyruvic acid as amino group acceptor; cited from earlier work.

The subject of test [5] is transaminase (intracellular enzyme). Description: Activity of the transaminase (intracellular enzyme) on typical substrates of ω-aminotransferases. The class given is biochemical, Arthrobacter sp. KNK168.
Test [6] deals with benzylamine transaminase of Okada et al. To be noted: cited from earlier work; for Substrate Specificity, relative activity: purified enzyme, laid-open patent publication, pyruvic acid as amino group acceptor.
Test [7] shares this test system. As to conditions: without addition = 100, cited from earlier work.
Test [8] has as its system Transaminase of Present Invention (purified enzyme). In words: Influence of reaction inhibitors on purified transaminase. As to conditions: for Relative activity with inhibitor: inhibitor 1 mM, without addition = 100. The test is classed as biochemical, Arthrobacter sp. KNK168.
From the text: as §1

For test [9], the target named is T1, ω-amino acid transaminase. To be noted: inhibitor 1 mM; without addition = 100; cited from earlier work.
In test [10] the test system is Transaminase of Present Invention. In words: Usability as amino group donor, transaminase of present invention. The class given is biochemical, Arthrobacter. The source says: Further, the transaminase derived from Arthrobacter which can be used in the present invention is different from the above-mentioned enzyme derived from Brevibacterium in many other aspects.

[11] abbreviates: amino group acceptor 2-ketoglutaric acid, (R)-1-phenylethylamine/pyruvic acid = 100 (control).

Values joined by “and” are separate entries in the source; they are usually repeats but may differ in a detail not shown here. Equal values may be shown once. Read-outs that look alike come from different tables or passages of the source. Marks after values point to notes of the source that are not given here.

As for `CCCC(C)N` (racemic) [(RS)-1-Methylbutylamine], the “(R)-DMA Formed” value in test [1] was 13.0%. In addition, in test [2], the “(R)-DMA Formed” value was 54.7% and 56.9%; the “Function as amino group donor (in words)” value is on record as “functioned as amino group donors”.

`CCC(C)N` (racemic) [(RS)-1-Methylpropylamine]: the entries for the “(R)-DMA Formed” value in test [1] and in test [2] were 22.3% and 28.2%, respectively. Besides, in [2], the “Function as amino group donor (in words)” value was “functioned as amino group donors”.

Regarding `CC(N)c1ccccc1` (racemic) [(RS)-1-Phenylethylamine], the “(R)-DMA Formed” value in [1] turned out to be 8.0%; in [2] it was 61.3%. The “Function as amino group donor (in words)” value in test [2] is given as “functioned as amino group donors”.

With `CCC(N)CO` (racemic) [(RS)-2-Amino-1-butanol], in test [1], the “(R)-DMA Formed” value was 12.9%.

`CC(N)C(C)(C)C` (racemic) [(RS)-3-Amino-2,2-dimethylbutane]: in test [1], the “(R)-DMA Formed” value is 18.6%.

For the compound `CC(N)CC(=O)O` (racemic) [DL-3-Aminobutyric acid], the “Action of the transaminase on the substance (in words)” value (“Action of the transaminase” for short) in test [3] was “does not act on”. Further, the figures for the “Substrate Specificity, relative activity” value in test [3] and in test [4] were 0% and 96%, respectively.

For `NCCCC(=O)O` [4-Aminobutyric acid], the “Relative Activity” value in test [5] (setting [11]) came to 0%. In addition, in [3], the “Action of the transaminase” value was “does not act on” and the “Substrate Specificity, relative activity” value was 0%. Besides, the “Substrate Specificity, relative activity” value in test [4] was 40%.

As to `COc1ccc(C[C@@H](C)N)cc1OC` [(R)-DMA, (R)-1-(3,4-dimethoxyphenyl)-2-aminopropane], in test [1], the “(R)-DMA Formed” value amounted to 0.9%. Moreover, in test [3], the “Relative Activity” value is listed as 30%.

On to `NCc1ccccc1` [Benzylamine], for which the “Action of benzylamine transaminase on the substance (in words)” value in test [6] (in the presence of pyruvic acid) was “strongly acts on”. Further, the “Substrate Specificity, relative activity” value in test [6] is reported as 100%; in [3], 0.8%; in test [4], 45%. For the same compound, the “Relative Activity” value in test [3] is 0.8%.

In the case of `O=S(=O)([O-])[O-].[Cu+2]` [CuSO4], the “Relative activity with inhibitor” value in [7] (inhibitor 0.5 mM) is on record as 5%; in [8], 44%.

`CC(C)(S)[C@@H](N)C(=O)O` [D-Penicillamine]: the “Relative activity with inhibitor” value in [7] (inhibitor 1 mM) is 0%; in test [8], 93%.

On to `NO` [Hydroxylamine], for which the “Relative activity with inhibitor” value is on record as 30% in [7] (inhibitor 0.1 mM), 0% in test [9] and 17% in test [8]. Moreover, in test [8], the “Influence of reaction inhibitor on the transaminase (in words)” value is given as “affected only a little”.

`NNc1ccccc1` [Phenylhydrazine]: the “Relative activity with inhibitor” value in [7] (inhibitor 1 mM) is 27%. For the same compound, in [8], the “Influence of reaction inhibitor on the transaminase (in words)” value is “affected only a little” and the “Relative activity with inhibitor” value amounted to 82%.

`NCCCCN` [Putrescine]: the “Substrate Specificity, relative activity” value in test [6] was 0%; in test [3], 0%; in [4] it was 55%. In addition, the “Relative Activity” value in [5] (setting [11]) is on record as 0%. The “Action of the transaminase” value in [3] is recorded as “does not act on”.

Regarding `Cl.N` [ammonium chloride], in test [10], the “Amino Group Donor (usable or not)” value is “cannot be used as an amino group donor”.

Take `N[C@@H](CC(=O)O)C(=O)O` [aspartic acid]: the “Amino Group Donor (usable or not)” value in test [10] was “cannot be used as an amino group donor”.

On to `N[C@@H](CCC(=O)O)C(=O)O` [glutamic acid], for which the “Amino Group Donor (usable or not)” value in [10] is listed as “cannot be used as an amino group donor”.

In the case of `CCCCN` [n-Butylamine], the “Substrate Specificity, relative activity” value in [6] was 0%; in test [3], 0%; in test [4], 60%. For the same compound, the “Action of the transaminase” value in test [3] is listed as “does not act on”.

On to `O=C(O)c1cc[c]([Hg][Cl])cc1` [p-Chloromercuribenzoic acid], for which the “Relative activity with inhibitor” value in test [7] (inhibitor 0.1 mM) was 9%; in [9], 100%; in test [8], 53%.

For `NCCC(=O)O` [β-Alanine], the “Substrate Specificity, relative activity” value is listed as 0* % in [6], 0* % in test [3] and 100* % in test [4]. In addition, the “Activity on the substance as amino group donor (in words)” value in test [5] was “does not act on”. The “Relative Activity” value in [5] (amino group acceptor pyruvic acid, (R)-1-phenylethylamine = 100 (control)) is 0%. Moreover, the “Action of the transaminase” value in [3] was “does not act on”.

`NCCc1ccccc1` [β-Phenethylamine]: the figures for the “Substrate Specificity, relative activity” value in test [6], in [3] and in test [4] were 9%, 0% and 54%, respectively.
